Results: US11596622B2, “Mazindol treatment for heroin dependence and substance use disorder” (NLS Pharmaceutics AG, priority 2017, dated 2023)

Key:
M1(h) = molecular target: T1, M1(h) (Homo sapiens, UniProt P11229); test: Radioligand binding, M1 (Eurofins CEREP); conditions: 1.0 × 10^−05 M; antagonist radioligand; read-out: percent inhibition of the binding of a radioactively labeled ligand
T1 construct: Eurofins CEREP
T1 sequence (P11229 1-460): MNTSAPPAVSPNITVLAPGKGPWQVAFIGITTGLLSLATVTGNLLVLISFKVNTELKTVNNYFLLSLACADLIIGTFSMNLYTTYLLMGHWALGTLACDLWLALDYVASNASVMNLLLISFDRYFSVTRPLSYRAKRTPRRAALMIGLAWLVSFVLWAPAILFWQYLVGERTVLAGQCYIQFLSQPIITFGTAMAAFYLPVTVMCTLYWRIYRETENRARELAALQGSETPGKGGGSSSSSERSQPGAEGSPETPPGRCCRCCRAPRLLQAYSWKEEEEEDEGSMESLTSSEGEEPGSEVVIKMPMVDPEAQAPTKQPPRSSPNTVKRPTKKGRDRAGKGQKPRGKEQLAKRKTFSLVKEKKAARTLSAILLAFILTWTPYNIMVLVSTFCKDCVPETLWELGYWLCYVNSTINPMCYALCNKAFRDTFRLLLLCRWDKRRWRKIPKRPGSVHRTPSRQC
Excerpt: (§1) Table A discloses mazindol and Met tested at […] and the compound binding calculated as a percent inhibition of the binding of a radioactively labeled ligand specific for each target (Eurofins CEREP, France).
(§2) An inhibition or stimulation of more than 50% is considered a significant effect of the test compounds. Fifty percent is a common cut-off for further investigation (i.e. determination of IC50 or EC50 values from concentration-response curves). Tables B and C display the binding profiles for Mazindol and Met.
(§3) The results are expressed as a percent of control specific binding obtained in the presence of the test compounds:
(§4) [formula] and as a percent inhibition of control specific binding obtained in the presence of the test compounds: […]

μ (MOP) (h) = molecular target: T2, μ (MOP) (h) (Homo sapiens, UniProt P35372); test: Radioligand binding, μ opioid receptor (Eurofins CEREP)
T2 construct: Eurofins CEREP
Excerpt: as §1, §2, §3, §4

[1] = cited from earlier work
[2] = Nakashima et al., 2004; cited from earlier work

T2 sequence (P35372 whole entry): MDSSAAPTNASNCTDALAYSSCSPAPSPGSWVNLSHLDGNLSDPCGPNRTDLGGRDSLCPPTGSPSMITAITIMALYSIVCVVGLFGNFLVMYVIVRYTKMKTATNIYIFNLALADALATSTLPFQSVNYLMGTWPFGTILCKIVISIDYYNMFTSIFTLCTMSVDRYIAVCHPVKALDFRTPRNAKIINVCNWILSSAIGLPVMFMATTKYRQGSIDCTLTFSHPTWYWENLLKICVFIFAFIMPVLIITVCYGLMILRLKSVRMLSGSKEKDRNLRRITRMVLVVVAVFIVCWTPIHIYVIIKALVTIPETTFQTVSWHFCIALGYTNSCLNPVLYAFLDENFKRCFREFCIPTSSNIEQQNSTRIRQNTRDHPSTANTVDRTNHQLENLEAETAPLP

For `OC1(c2ccc(Cl)cc2)c2ccccc2C2=NCCN21` (stereo not shown) [Mazindol, 5-(4-chlorophenyl)-2,5-dihydro-3 H-imadazo[2,1-a]isoindol-5-ol], the inhibition at 10 µM (M1(h)) was 52.1%, the inhibition at 10 µM (μ (MOP) (h); 1.0 × 10^−05 M, agonist radioligand, read-out: percent inhibition of the binding of a radioactively labeled ligand) was 89.9% and the “affinity for μ-opioid receptors” value (μ (MOP) (h); compared with amphetamines) was “higher affinity”. The linearity of pharmacokinetics ([1]; between 1 mg/day and 4 mg/day, immediate release formulations) was “linear (independent of the dose)”, the half-life time ([1]; immediate release formulation, healthy volunteers (Kim 2009)) was 9.1 ± 1.7 h and the “time to maximum concentrations (Tmax)” value ([1]; single or repeated oral administration, U.S. Pat. No. 8,293,779) was 2 to 4 h. The “stability (hydrolysis to Met)” value [2] was “hydrolysis of mazindol at moderate temperatures in neutral and alkaline aqueous solutions”.
